Data on four compounds can be found in patent publication US4771123A, “Peptide thioneamides as selective substrates for cysteine proteases” (Enzyme Systems Products, Inc., priority 1986, dated 1988).

Format in all cases: biochemical
For assay [1], the system named is Trypsin. As to the kind of experiment: Hydrolysis of oxyamide and thioneamide substrates by trypsin (catalytic constants, Table I). The note with it: pH 7.5, Tris buffer (50 mM), 10 mM CaCl2, 12.5% DMSO. Here is the method: (§1) Table I below provides a comparison between hydrolysis rates of trypsin and papain acting on two different oxyamides and on their corresponding thioneamides. Trypsin was used at pH 7.5 in a Tris buffer (50 mM), with 10 mM CaCl2, and 12.5% DMSO. Papain was used at pH 6.5 in a thiol buffer (52 mM NaH2 PO4, 31 mM dithiothreitol, 2.1 mM EDTA) and 12.5% DMSO. Table I lists the catalytic constants kcat (moles product formed per second per mole enzyme), KM (M), and kcat /KM (M^-1 sec^-1) for the indicated substrates.

Assay [2] has as its target T1, Papain (Carica papaya, UniProt P00784).
T1 sequence (P00784 134-345): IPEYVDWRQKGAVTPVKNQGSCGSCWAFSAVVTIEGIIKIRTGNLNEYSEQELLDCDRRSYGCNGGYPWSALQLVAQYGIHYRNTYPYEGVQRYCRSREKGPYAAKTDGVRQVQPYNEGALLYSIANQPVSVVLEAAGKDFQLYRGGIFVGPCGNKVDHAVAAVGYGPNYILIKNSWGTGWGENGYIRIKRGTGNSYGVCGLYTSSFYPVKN
As to the kind of experiment: Hydrolysis of oxyamide and thioneamide substrates by papain (catalytic constants, Table I). The note with it: pH 6.5, thiol buffer (52 mM NaH2PO4, 31 mM dithiothreitol, 2.1 mM EDTA), 12.5% DMSO. Here is the method: as §1

Assay [3] concerns the target T1, Papain. Nature of the assay: Selective detection assay, rate of AIE formation with papain alone (Table II). The note with it: Papain 6.85×10^-6 M; thiol buffer pH 6.5, 2.5% DMSO; substrate 2.46×10^-4 M (Cbz-Lys-AIE) or 2.53×10^-4 M (Cbz-Lys.PSI.[CS]-AIE). The method, then:
(§2) A thiol buffer at pH 6.5 was used (52 mM NaH2 PO4, 31 mM dithiothreitol, 2.1 mM EDTA) with 2.5% DMSO. The enzyme concentrations in the assays were 6.85×10^-6 M for papain, and 1.28×10^-6 M for trypsin. Substrate concentrations were 2.46×10^-4 M for Cbz-Lys-AIE, and 2.53×10^-4 M for Cbz-Lys.PSI.[CS]-AIE. Rates are given in terms of moles AIE formed per minute.

Assay [4] has as its system Trypsin. Nature of the assay: Selective detection assay, rate of AIE formation with trypsin alone (Table II). The note with it: Trypsin 1.28×10^-6 M; thiol buffer pH 6.5, 2.5% DMSO; substrate 2.46×10^-4 M (Cbz-Lys-AIE) or 2.53×10^-4 M (Cbz-Lys.PSI.[CS]-AIE). The method, then: as §2

Regarding “Cbz-Lys.PSI.[CS]-AIE.HCl [Cbz--Lys.psi.[CS]--AIE]”, the “rate of product formation by trypsin (in words)” value with Trypsin [1] was “NO RATE”. On Papain [2], the Km was found to be 213 µM, the kcat was 4.00 × 10^-3 moles product formed per secon and the “kcat /KM” value was 18.8 M⁻¹ s⁻¹. Further, the “Rate of AIE formation” value on Papain [3] is 1.15 moles AIE formed per minute. In addition, the “Rate of AIE formation” value with Trypsin [4] is reported as 0.00 moles AIE formed per minute.
Take `COC(=O)c1cc(NC(=O)[C@H](CCCCN)NC(=O)OCc2ccccc2)cc(C(=O)OC)c1` [Cbz--Lys--AIE, Cbz-Lys-AIE]: in the assay on Trypsin [1], the Km was found to be 168 µM, the kcat is 1.15 × 10^-1 moles product formed per secon and the “kcat /KM” value stood at 686 M⁻¹ s⁻¹. Besides, at Papain [2], the Km is 281 µM, the kcat was 2.95 × 10^-2 moles product formed per secon and the “kcat /KM” value is 105 M⁻¹ s⁻¹. Also, at Papain [3], the “Rate of AIE formation” value was 6.03 moles AIE formed per minute.
`Br.COC(=O)c1cc(NC(=S)[C@H](CCCNC(=N)N)NC(=O)[C@H](Cc2ccccc2)NC(=O)OCc2ccccc2)cc(C(=O)OC)c1` [Cbz--Phe--Arg.psi.[CS]--AIE, Cbz-Phe-Arg.PSI.[CS]-AIE.HBr]: the “rate of product formation by trypsin (in words)” value in the assay with Trypsin [1] was “NO RATE”. For the same compound, at Papain [2], the Km was found to be 574 µM, the kcat is 5.35 moles product formed per secon and the “kcat /KM” value turned out to be 0.0932 M⁻¹ s⁻¹.
Cbz--Phe--Arg--AIE: in the assay on Trypsin [1], the Km is 502 µM, the kcat is listed as 9.03 × 10^-1 moles product formed per secon and the “kcat /KM” value is 1800 M⁻¹ s⁻¹. Besides, on Papain [2], the Km amounted to 813 µM, the kcat is on record as 3.53 × 10^1 moles product formed per secon and the “kcat /KM” value was 43500 M⁻¹ s⁻¹.

By Km is commonly meant the concentration of substrate that gives half-maximal velocity.
